Values quoted from earlier work as cited in article PMC7395068, “The evolution of strategies to minimise the risk of human drug-induced liver injury (DILI) in drug discovery and development” (Archives of Toxicology, 2020).
Where two headings read alike, the source gives them in different places.

What was measured:
HepG2 = system: HepG2; parameters: method as in Albrecht 2019; details: In vitro Assay; ref Albrecht 2019; cited from earlier work
[1] = cited from earlier work
[2] = system: primary human hepatocytes, NIH3T3 fibroblasts, BSEP, CYP3A4; details: In vitro Assay; ref Schadt 2015; cited from earlier work
human hepatocytes = details: In vitro Assay; ref Xu 2008; cited from earlier work
[3] = system: THLE or HepG2 cells, isolated mitochondria, BSEP; details: cited from earlier work
[4] = cited from earlier work; remark: listed apart in the source
PHH [5] = details: In vitro Assay; ref Albrecht 2019; cited from earlier work
[6] = ref Chen 2011; cited from earlier work
HepG2 cells [7] = details: cited from earlier work
[8] = system: HepG2 cells, primary human hepatocytes; details: In vitro Assay; ref Garside 2014; cited from earlier work
rBsep = details: In vitro Assay; ref Dawson 2012; cited from earlier work
HepG2 cells [9] = details: In vitro Assay; ref Persson 2013; cited from earlier work
PHH spheroids = details: In vitro Assay; ref Vorrink 2018; cited from earlier work
[10] = system: THLE-Null and THLE-3A4 cells; details: In vitro Assay; ref Gustafsson 2014; cited from earlier work
PHH [11] = details: cited from earlier work
hLiMTs = details: cited from earlier work
[12] = system: HepG2 C3A spheroid, BSEP, Glu/Gal in HepG2 cells, bioactivation; details: cited from earlier work
[13] = system: isolated mouse liver mitochondria; details: In vitro Assay; ref Porceddu 2012; cited from earlier work
[14] = In vitro Assay, ref O'Brien 2006

SMILES	Cytotoxicity HepG2 48 hrs (HepG2)	DILI +VE (5-8), DILI -VE (-4) ([1]; ref Chen 2016)	DILI severity category ([1]; ref Chen 2016)	Cellular toxicity (3T3 cells) [2]	Combined Assay [2]	GSH adduct HML [2]	Hepatocyte cellular toxicity [2]	MitoTox 3T3 [2]	TDI CYP3A4 [2]	hBSEP inhibition [2]	Structural based (HCI) (human hepatocytes)	Partition Hybrid HRM Score ([3]; In vitro Assay, ref Aleo 2019)	Ro2 Hybrid HRM Score ([3]; In vitro Assay, ref Aleo 2019)	In vivo DILI ([4]; ref Albrecht 2019)	In vivo DILI ([4]; ref Schadt 2015)	In vivo DILI ([4]; ref Xu 2008)	Cytotoxicity PHH 48 hrs (PHH [5])	DILI Score (FDA) (1-8) [6]	In vivo DILI ([4]; ref Garside 2014)	Cluster 1-6 +VE Assay [8]	other results
Clc1cccc(Cl)c1N=C1NCCN1 [clonidine]	-VE	-VE	Ambiguous DILI-concern	-VE	-VE	-VE	-VE	-VE	-VE	-VE	-VE	-VE	-VE	-VE	-VE	+VE	-VE	3			
NC(N)=Nc1nc(CSCCC(N)=NS(N)(=O)=O)cs1 [famotidine]	-VE	+VE	vLess-DILI-Concern								-VE			-VE		-VE	-VE	3	+VE	-VE	Structural based (HCI) (HepG2 cells [7]; [14]): +VE; In vivo DILI ([4]; ref Dawson 2012): +VE; In vivo DILI ([4]; ref O'Brien 2006): +VE; Inhibition of rBsep cutoff<1& cmax u>.2 (rBsep): -VE; Inhibition of rBsep cutoff<3 (rBsep): -VE
CC(CCc1ccccc1)NCC(O)c1ccc(O)c(C(N)=O)c1 (centres unmarked) [labetalol]	+VE	+VE	vMost-DILI-Concern								+VE			+VE		+VE	+VE	8	+VE	+VE	Structural based (HCI) (HepG2 cells [7]; [14]): +VE; Cluser analysis (HepG2 cells [9]): -VE; Structural based (HCI) (HepG2 cells [9]): -VE; hLiMTs ATP <20 x Cmax (PHH spheroids): -VE; In vivo DILI ([4]; […]): +VE; In vivo DILI ([4]; ref Aleo 2019): +VE; In vivo DILI ([4]; ref O'Brien 2006): +VE; In vivo DILI ([4]; ref Persson 2013): +VE; In vivo DILI ([4]; ref Vorrink 2018): +VE
Cc1oncc1C(=O)Nc1ccc(C(F)(F)F)cc1 [leflunomide]	+VE	+VE	vMost-DILI-Concern	-VE	-VE	+VE	-VE	-VE	-VE	-VE	-VE	+VE	+VE	+VE	+VE	+VE	+VE	8	+VE	-VE	Structural based (HCI) (HepG2 cells [7]; [14]): +VE; In vivo DILI ([4]; ref Aleo 2019): +VE; In vivo DILI ([4]; ref Dawson 2012): +VE; In vivo DILI ([4]; ref Gustafsson 2014): +VE; In vivo DILI ([4]; ref O'Brien 2006): +VE; THLE-Null [10]: -VE; THLE-Null/3A4 [10]: -VE; Inhibition of rBsep cutoff<1& cmax u>.2 (rBsep): -VE; Inhibition of rBsep cutoff<3 (rBsep): +VE
Cc1ccnc2c1NC(=O)c1cccnc1N2C1CC1 [nevirapine]	+VE	+VE	vMost-DILI-Concern	-VE	+VE	+VE	-VE	+VE	-VE	-VE		+VE	-VE	+VE	+VE		+VE	8	+VE	-VE	In vivo DILI ([4]; […]): +VE; In vivo DILI ([4]; ref Aleo 2019): +VE
CS(=O)(=O)Nc1ccc([N+](=O)[O-])cc1Oc1ccccc1 [nimesulide]	+VE																+VE				DILI +VE (5-8), DILI -VE (-4) ([1]; in vivo): +VE; DILI severity category ([1]; in vivo): vMost-DILI-Concern; Structural based (HCI) (HepG2 cells [7]): +VE; Ro2 Hybrid HRM Score [3]: +VE; PHH ATP <100uM (PHH [11]): +VE (key: +VE: IC50 threshold of 100 µM); hLiMTs ATP <100uM (hLiMTs): +VE (key: +VE: IC50 threshold of 100 µM); hLiMTs ATP <20 x Cmax (PHH spheroids): +VE (IC20 < 20 × Cmax.tot cut-off); Bayesian Machine Learning [12]: +VE; In vivo DILI ([4]; in vivo): +VE; in vitro data EC2<=1x Cmax [13]: +VE
